Experimental findings from patent US8563717B2, “Adenine derivatives” (GlaxoSmithKline LLC, priority 2008, dated 2013) are described below.

Counter-ions that a name gives are not always drawn.

The test concerns Interferon-α. Description: Induction of Interferon-α using cryopreserved human PBMCs. The format is cell-based. The conditions noted are these: PBMC, 24 h incubation, normalised to 1 uM resiquimod, read-out: mean pEC50 for induction of IFN-α (converted). On the procedure:
Assay for the Induction of Interferon-α Using Cryopreserved Human Peripheral Blood Mononuclear Cells (PBMCs)
Compounds were dissolved in DMSO. Serial 2-fold dilutions with DMSO were prepared and 0.25 μl dispensed into 384-well clear Greiner polypropylene plates.
Blood samples of up to 200 ml were obtained from healthy human donors. Whole blood in 25 ml volumes was overlaid onto 15 ml Ficoll gradients in Leucosep tubes, and centrifuged at 1000 g for 20 min. Cells in the band at the plasma/histopaque interface were carefully removed and washed twice with PBS (centrifuged at 400 g for 5 min to harvest). The final pellet was resuspended in freezing medium (90% Heat-inactivated serum, 10% DMSO) to a cell concentration of 4×10^7 cells/ml. The resuspended cells were then cryopreserved (frozen) using a rate controlled freezer, and stored at −140° C. for up to 4 months.
Immediately prior to assay, vials of cryopreserved (frozen) PBMCs were thawed rapidly in a water bath at 37° C. A 1:10 dilution of the cells in trypan blue was prepared and counted. The PBMCs were then diluted in growth media [RPMI 1640 containing 10% fetal calf serum (invitrogen), Penicillin+[…] (Gibco cat. #25030-024, 1:50), L-Glutamine 2 mM, and 1000 units/ml recombinant human IFN-gamma (Preprotech catalogue #300-02)] to a density of 1×10^6 cells/ml, and 50 ul/well dispensed to 384-well clear Greiner polypropylene plates containing 0.25 μl DMSO or test compound in 0.25 μl DMSO. […] Plates were incubated for 24 h at 37° C. in 5% CO2.
A multi-isoform immunoassay was used to quantify IFN-α in PBMC supernatants. Rabbit polyclonal antibody against human IFN-α (catalogue number 31101, Stratech Scientific) was diluted 1:10000 in assay buffer (RPMI 1640 containing 10% fetal calf serum, Invitrogen) and 20 μl was added to each well of an MSD (Meso-Scale Discovery) single small-spot 384-well GAR (goat anti-rabbit antibody coated) plate. The plate was incubated for 1 hour at room temperature with vigorous shaking. Following three washes with PBS, 20 μl of cell supernatant were added to each well of the plate. The plate was then incubated for 1 hour at room temperature with vigorous shaking. A pair of monoclonal antibodies to IFN-α (catalogue numbers 21100 and 21112, Stratech Scientific) were labelled with sulfo-TAG (MSD), diluted 1:1000 in assay buffer and 20 μl added to each well of the plate. The plate was further incubated for 1 hour at room temperature with vigorous shaking. Following three washes with PBS, 30 μl of x2 T buffer (MSD) was added to each well and the plate was read on an MSD Sector 6000 plate reader.
Data were normalised to internal plate controls of 1 uM resiquimod (n=16) and DMSO (n=16). pEC50 values were derived by 4-parameter curve fit with IRLS in ActivityBase, from 11-point, two-fold serial dilution of test compounds.
On to `CCCCOc1nc(N)c2[nH]c(=O)n(CCC3CCCN(CC4CCCC4)C3)c2n1` (stereo not drawn) [Example 37, 6-Amino-2-(butyloxy)-9-{2-[1-(cyclopentylmethyl)-3-piperidinyl]ethyl}-7,9-dihydro-8H-purin-8-one], for which the EC50 is below 1580 nM. As to `CCCCOc1nc(N)c2[nH]c(=O)n(CCCCCC3CCN(CC(C)C)CC3)c2n1` [Example 127, 6-Amino-2-(butyloxy)-9-{5-[1-(2-methylpropyl)-4-piperidinyl]pentyl}-7,9-dihydro-8H-purin-8-one hydrochloride], the EC50 was below 1580 nM. On to `CCCCOc1nc(N)c2[nH]c(=O)n(CCC3CCCN(CCC)C3)c2n1` (stereo not drawn) [Example 31, 6-Amino-2-(butyloxy)-9-[2-(1-propyl-3-piperidinyl)ethyl]-7,9-dihydro-8H-purin-8-one], for which the EC50 was below 1580 nM. For the compound `CCCCOc1nc(N)c2[nH]c(=O)n(CCCC3CCCCN3CCC3CCCCC3)c2n1` (stereo not drawn) [Example 22, 6-Amino-2-(butyloxy)-9-{3-[1-(2-cyclohexylethyl)-2-piperidinyl]propyl}-7,9-dihydro-8H-purin-8-one], the EC50 was below 1580 nM.

For the compound `CCCCOc1nc(N)c2[nH]c(=O)n(CCCCC3CCN(CCC(C)C)CC3)c2n1` [Example 113, 6-Amino-2-(butyloxy)-9-{4-[1-(3-methylbutyl)-4-piperidinyl]butyl}-7,9-dihydro-8H-purin-8-one], the EC50 was below 1580 nM. For `CCCCOc1nc(N)c2[nH]c(=O)n(CCCCC3CCCN(CCC4CCCCC4)C3)c2n1` (stereo not drawn) [Example 64, 6-Amino-2-(butyloxy)-9-{4-[1-(2-cyclohexylethyl)-3-piperidinyl]butyl}-7,9-dihydro-8H-burin-8-one], the EC50 was below 1580 nM. For `CCCCOc1nc(N)c2[nH]c(=O)n(CCCCC3CCCN(C4CCCC4)C3)c2n1` (stereo not drawn) [Example 62, 6-Amino-2-(butyloxy)-9-[4-(1-cyclopentyl-3-piperidinyl)butyl]-7,9-dihydro-8H-purin-8-one] the value was below 1580 nM; for `CCC[C@H](C)Oc1nc(N)c2[nH]c(=O)n(CCCC3CCCNC3)c2n1` (stereo partly drawn) [Example 53, 6-Amino-2-{[(1S)-1-methylbutyl]oxy}-9-[3-(3-piperidinyl)propyl]-7,9-dihydro-8H-purin-8-one], below 1580 nM; for `CCC[C@H](C)Oc1nc(N)c2[nH]c(=O)n(CCCCC3CCNCC3)c2n1` [Example 118, 6-Amino-2-{[(1S)-1-methylbutyl]oxy}-9-[4-(4-piperidinyl)butyl]-7,9-dihydro-8H-purin-8-one], below 1580 nM. Take `CCCCOc1nc(N)c2[nH]c(=O)n(CCCCC3CCN(C(CC)CC)CC3)c2n1` [Example 112, 6-Amino-2-(butyloxy)-9-{4-[1-(1-ethylpropyl)-4-piperidinyl]butyl}-7,9-dihydro-8H-purin-8-one]: the EC50 is below 1580 nM. Regarding `CCCCOc1nc(N)c2[nH]c(=O)n(CCCCC3CCCN(CCC)C3)c2n1` (stereo not drawn) [Example 57, 6-Amino-2-(butyloxy)-9-[4-(1-propyl-3-piperidinyl)butyl]-7,9-dihydro-8H-purin-8-one], the EC50 was below 1580 nM. For `CCC[C@H](C)Oc1nc(N)c2[nH]c(=O)n(CC3CCN(C(C)C)CC3)c2n1` [Example 79, 6-Amino-2-{[(1S)-1-methylbutyl]oxy}-9-{[1-(1-methylethyl)-4-piperidinyl]methyl}-7,9-dihydro-8H-purin-8-one] the value was below 1580 nM. For `CCCCOc1nc(N)c2[nH]c(=O)n(CCCCCC3CCN(CC)CC3)c2n1` [Example 123, 6-Amino-2-(butyloxy)-9-[5-(1-ethyl-4-piperidinyl)pentyl]-7,9-dihydro-8H-purin-8-one], the EC50 is below 1580 nM. With `CCCCOc1nc(N)c2[nH]c(=O)n(CCCCC3CCN(CC(C)C)CC3)c2n1` [Example 111, 6-Amino-2-(butyloxy)-9-{4-[1-(2-methylpropyl)-4-piperidinyl]butyl}-7,9-dihydro-8H-purin-8-one], the EC50 is below 1580 nM. `CCCCOc1nc(N)c2[nH]c(=O)n(CCCCC3CCN(C4CCCC4)CC3)c2n1` [Example 114, 6-Amino-2-(butyloxy)-9-[4-(1-cyclopentyl-4-piperidinyl)butyl]-7,9-dihydro-8H-purin-8-one]: the EC50 was below 1580 nM. For `CCCCOc1nc(N)c2[nH]c(=O)n(CCCC3CCCCN3CCCC)c2n1` (stereo not drawn) [Example 17, 6-Amino-2-(butyloxy)-9-[3-(1-butyl-2-piperidinyl)propyl]-7,9-dihydro-8H-purin-8-one] the value was below 1580 nM; for `CCCCOc1nc(N)c2[nH]c(=O)n(CCCC3CCCCN3)c2n1` (stereo not drawn) [Example 13, 6-Amino-2-(butyloxy)-9-[3-(2-piperidinyl)propyl]-7,9-dihydro-8H-purin-8-one], below 1580 nM; for `CCC[C@H](C)Oc1nc(N)c2[nH]c(=O)n(CCCCC3CCCNC3)c2n1` (stereo partly drawn) [Example 65, 6-Amino-2-{[(1S)-1-methylbutyl]oxy}-9-[4-(3-piperidinyl)butyl]-7,9-dihydro-8H-purin-8-one], below 1580 nM.

In the case of `CCCCOc1nc(N)c2[nH]c(=O)n(CCCC3CCCN(CCC4CCCCC4)C3)c2n1` (stereo not drawn) [Example 52, 6-Amino-2-(butyloxy)-9-{3-[1-(2-cyclohexylethyl)-3-piperidinyl]propyl}-7,9-dihydro-8H-purin-8-one], the EC50 is below 1580 nM. For the compound `CCCCOc1nc(N)c2[nH]c(=O)n(CC3CCCN(CCC(C)C)C3)c2n1` (stereo not drawn) [Example 27, 6-Amino-2-(butyloxy)-9-{[1-(3-methylbutyl)-3-piperidinyl]methyl}-7,9-dihydro-8H-purin-8-one], the EC50 was below 1580 nM.

As for `CCCCOc1nc(N)c2[nH]c(=O)n(CCCCC3CCCN(CC)C3)c2n1` (stereo not drawn) [Example 56, 6-Amino-2-(butyloxy)-9-[4-(1-ethyl-3-piperidinyl)butyl]-7,9-dihydro-8H-purin-8-one], the EC50 was below 1580 nM.

Turning to `CCCCOc1nc(N)c2[nH]c(=O)n(CCC3CCN(CCCC)CC3)c2n1` [Example 82, 6-Amino-2-(butyloxy)-9-[2-(1-butyl-4-piperidinyl)ethyl]-7,9-dihydro-8H-purin-8-one], the EC50 is below 1580 nM.

On to `CCCCOc1nc(N)c2[nH]c(=O)n(CCCC3CCCNC3)c2n1` (stereo not drawn) [Example 43, 6-Amino-2-(butyloxy)-9-[3-(3-piperidinyl)propyl]-7,9-dihydro-8H-purin-8-one], for which the EC50 is below 1580 nM.

For the compound `CCCCOc1nc(N)c2[nH]c(=O)n(CCC3CCN(CCC)CC3)c2n1` [Example 80, 6-Amino-2-(butyloxy)-9-[2-(1-propyl-4-piperidinyl)ethyl]-7,9-dihydro-8H-purin-8-one], the EC50 is below 1580 nM. Consider `CCCCOc1nc(N)c2[nH]c(=O)n(CCC3CCN(CC4CCCC4)CC3)c2n1` [Example 87, 6-Amino-2-(butyloxy)-9-{2-[1-(cyclopentylmethyl)-4-piperidinyl]ethyl}-7,9-dihydro-8H-purin-8-one], for which the EC50 was below 1580 nM.

In the case of `CCCCOc1nc(N)c2[nH]c(=O)n(CCC3CCCN(CC(C)C)C3)c2n1` (stereo not drawn) [Example 34, 6-Amino-2-(butyloxy)-9-{2-[1-(2-methylpropyl)-3-piperidinyl]ethyl}-7,9-dihydro-8H-purin-8-one], the EC50 is below 1580 nM. For `CCCCOc1nc(N)c2[nH]c(=O)n(CCC3CCN(C(CC)CC)CC3)c2n1` [Example 84, 6-Amino-2-(butyloxy)-9-{2-[1-(1-ethylpropyl)-4-piperidinyl]ethyl}-7,9-dihydro-8H-purin-8-one], the EC50 is below 1580 nM. Turning to `CCCCOc1nc(N)c2[nH]c(=O)n(CC3CCCN(C4CCCC4)C3)c2n1` (stereo not drawn) [Example 28, 6-Amino-2-(butyloxy)-9-[(1-cyclopentyl-3-piperidinyl)methyl]-7,9-dihydro-8H-purin-8-one hydrochloride], the EC50 is below 1580 nM. As for `CCCCOc1nc(N)c2[nH]c(=O)n(CCCCCCC3CCN(C(C)C)CC3)c2n1` [Example 134, 6-Amino-2-(butyloxy)-9-{6-[1-(1-methylethyl)-4-piperidinyl]hexyl}-7,9-dihydro-8H-purin-8-one], the EC50 was below 1580 nM. In the case of `CCCCOc1nc(N)c2[nH]c(=O)n(CCC3CCN(C4CCCCC4)CC3)c2n1` [Example 88, 6-Amino-2-(butyloxy)-9-[2-(1-cyclohexyl-4-piperidinyl)ethyl]-7,9-dihydro-8H-purin-8-one] it was below 1580 nM.
